In patent US20190135834A1, “5-SUBSTITUTED AZABENZIMIDAZOLE DERIVATIVE HAVING ???? ACTIVATION ACTION” (Shionogi & Co., Ltd., priority 2016, published 2019):

Biological target: T1, Human AMPK α2ß2γ1 (Homo sapiens, UniProt O43741+P54646)
T1 construct: The full length cDNAs of human AMPK ß2 (NM_005399.3) and human AMPK α2 (NM_006252.3); The full length cDNAs of human AMPK ß2 (NM_005399.3); 6xHis (N); made in house; host or cells: Escherichia coli BL21 CodonPlus (DE3)-RIL
Assay: Test Example 2: evaluation of an activator for AMP-activated protein kinase (AMPK), LabChip mobility shift assay with CaMKK2-phosphorylated enzyme
Assay type: biochemical
Details: for EC150 (compound concentration showing 150% relative to the control (100%)): FL-Peptide 7 substrate, 25° C., 2 hours; for Emax / Emax (maximum rate of increase in activity within the measurement range): relative to control (100%); for Emax: read-out: Emax (maximum rate of increase in activity within the measurement range)
Protocol: The full length cDNAs of human AMPK ß2 (NM_005399.3) and human AMPK α2 (NM_006252.3) were inserted into the MCS1 and MCS2 of the pETDuet-1 vector to prepare a human AMPK ß2 and human AMPK α2 (6× His tag at the 5′ terminus) expressing plasmid. The plasmid was cotransfected with an expression plasmid, in which the full length cDNA of human AMPK γ1 (NM_002733.3) had been inserted into pET28b(+), into BL21 CodonPlus (DE3)-RIL to obtain an expression strain. The expression strain was cultured in TB medium, followed by induction with 0.5 mM IPTG, and cultured at 25° C. for 3 hours and then harvested. After ultrasonication, supernatant was collected and applied to Histrap FF column (GE) and RESOURCE Q column (GE) to prepare 12.5 mg of purified sample containing three types of subunit from 1.8 L of broth.
Preparation method of human CaMKK2 used to impart activity to AMPK An expression vector, in which the full length cDNA of human CAMKK ß (NM_172226.1) had been inserted into pGEX-6P-3, was transfected into BL21 Star (DE3). The expression strain was cultured in TB medium, followed by induction with 0.5 mM IPTG, and cultured at 25° C. for 3 hours and then harvested. After ultrasonication, supernatant was collected and applied to GSTrap FF column (GE) to prepare 14 mg of GST-fused CAMKK ß from 720 ml of broth.
Thus, phosphorylation treatment was carried out as pretreatment.
Human AMPK α2ß2γ1 in an amount to give a conversion rate of approximately 10% by reaction for 2 hours, and CaMKK2 in an amount capable of sufficiently imparting activity to AMPK for one hour were mixed in a buffer solution consisting of a 50 mM HEPES-NaOH buffer solution (pH 7.0), 100 mM NaCl, 5 mM magnesium chloride, 0.1% bovine serum albumin, 0.2 mM sodium orthovanadate(V), 1 mM ethylene glycol-bis(2-aminoethyl ether)-N,N,N′,N′-tetraacetic acid (EGTA), 5 mM disodium ß-glycerophosphate, 1 mM dithiothreitol and 0.2 mM ATP, and the resulting liquid was left to stand at 25° C. for 1 to 1.5 hours to sufficiently phosphorylate AMPK.
After that, to the enzyme liquid, which had been subjected to phosphorylation treatment, a compound dissolved in DMSO was added so as to have a 1% DMSO concentration. The resulting liquid was left to stand for 10 minutes.
To the liquid, a substrate solution consisting of a 50 mM HEPES-NaOH buffer solution (pH 7.0), 100 mM NaCl, 10 mM magnesium chloride, 0.1% bovine serum albumin, 0.2 mM sodium orthovanadate(V), 1 mM ethylene glycol-bis(2-aminoethyl ether)-N,N,N′,N′-tetraacetic acid (EGTA), 5 mM disodium ß-glycerophosphate, 2 mM dithiothreitol, 0.4 mM ATP and 3 μM FL-Peptide 7 (manufactured by Caliper Life Sciences, Inc.) was added in equal amount (10 μl in total). The resulting liquid was allowed to react at 25° C. for 2 hours, and 10 μl of 20 mM EDTA was added thereto to stop the reaction.
To detect phosphorylated fluorescent substrates, the reaction mixture was applied to a measuring device, LabChip EZ Reader II manufactured by Caliper Life Science, Inc., for detecting fluorescence by using differences in mobility due to differences in charge. The setting conditions for the device were pressure, −1.5 PSI; upstream voltage, −2250 V; downstream voltage, −400 V; post sample buffer sip time, 40 seconds; final delay, 120 seconds; and peak order, Product First.
A conversion rate was calculated from the peak heights of the obtained substrate and product. The conversion rate when not containing a compound was used as a control, and a concentration dependent curve was made by plotting the rate of increase in activity to the control at each concentration of a compound.

T1 sequence (P54646 whole entry): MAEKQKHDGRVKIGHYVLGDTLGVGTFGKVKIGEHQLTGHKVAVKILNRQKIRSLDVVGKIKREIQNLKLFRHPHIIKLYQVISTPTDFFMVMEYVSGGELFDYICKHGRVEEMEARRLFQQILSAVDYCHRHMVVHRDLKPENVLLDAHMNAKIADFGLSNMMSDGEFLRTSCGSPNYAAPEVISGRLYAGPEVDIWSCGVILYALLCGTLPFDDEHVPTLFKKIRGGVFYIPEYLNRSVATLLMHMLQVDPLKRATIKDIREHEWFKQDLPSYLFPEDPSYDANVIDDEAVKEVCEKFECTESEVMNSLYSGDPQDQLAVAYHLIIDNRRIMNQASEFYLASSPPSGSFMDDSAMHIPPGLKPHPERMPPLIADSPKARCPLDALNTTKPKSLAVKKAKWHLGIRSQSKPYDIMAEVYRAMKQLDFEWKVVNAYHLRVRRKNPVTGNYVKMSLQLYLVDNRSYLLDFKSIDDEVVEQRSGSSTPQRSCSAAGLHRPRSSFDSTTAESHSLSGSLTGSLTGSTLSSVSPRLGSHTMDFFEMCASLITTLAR
T1 sequence (O43741 whole entry): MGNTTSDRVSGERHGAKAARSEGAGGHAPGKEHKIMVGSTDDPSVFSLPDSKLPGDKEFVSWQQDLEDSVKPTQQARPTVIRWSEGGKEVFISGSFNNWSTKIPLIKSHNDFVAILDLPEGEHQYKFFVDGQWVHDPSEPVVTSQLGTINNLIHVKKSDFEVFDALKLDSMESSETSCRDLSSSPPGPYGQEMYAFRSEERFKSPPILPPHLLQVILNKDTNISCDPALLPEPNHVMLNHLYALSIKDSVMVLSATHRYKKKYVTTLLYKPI
T1 sequence (P54619 whole entry partner): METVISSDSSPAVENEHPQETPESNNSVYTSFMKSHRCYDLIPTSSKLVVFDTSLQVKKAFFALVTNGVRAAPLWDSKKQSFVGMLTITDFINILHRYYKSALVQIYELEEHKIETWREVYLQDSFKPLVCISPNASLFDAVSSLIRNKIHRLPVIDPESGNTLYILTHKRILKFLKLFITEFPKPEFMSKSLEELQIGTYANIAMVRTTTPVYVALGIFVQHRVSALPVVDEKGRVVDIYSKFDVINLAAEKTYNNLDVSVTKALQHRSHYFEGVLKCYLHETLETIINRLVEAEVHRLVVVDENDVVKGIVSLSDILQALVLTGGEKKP

| SMILES | EC150 (compound concentration showing 150% relative to the control (100%)) [nM] | Emax [%] | Emax (maximum rate of increase in activity within the measurement range) [%] |
| --- | --- | --- | --- |
| OCCCOc1cc(F)c2c(c1)CCC2Nc1nc2nc(O[C@@H]3CO[C@H]4[C@@H]3OC[C@H]4O)[nH]c2cc1Cl (stereo partly shown) [Compound I-1-81] | 1.6 | 387 | – |
| O[C@@H]1CO[C@H]2[C@@H]1OC[C@H]2Oc1nc2nc(NC3CCc4cc(OCC5CCO5)cc(F)c43)c(Cl)cc2[nH]1 (stereo partly shown) [Compound I-1-83] | 2.2 | 414 | – |
| COc1ccc(-c2cc(F)c3c(c2)CCC3Nc2nc3nc(O[C@@H]4CO[C@H]5[C@@H]4OC[C@H]5O)[nH]c3cc2Cl)cn1 (stereo partly shown) [Compound I-1-86] | 28 | – | 379 |
| CC(C)(O)CCOc1cc(F)c2c(c1)CCC2Nc1nc2nc(O[C@@H]3CO[C@H]4[C@@H]3OC[C@H]4O)[nH]c2cc1Cl (stereo partly shown) [Compound I-1-88] | 5.9 | 376 | – |
| CCOc1cc(F)c2c(c1)CCC2Nc1nc2nc(O[C@@H]3CO[C@H]4[C@@H]3OC[C@H]4O)[nH]c2cc1Cl (stereo partly shown) [Compound I-1-90] | 11 | 382 | – |
| O[C@@H]1CO[C@H]2[C@@H]1OC[C@H]2Oc1nc2nc(NC3CCc4cc(-c5ccnnc5)cc(F)c43)c(Cl)cc2[nH]1 (stereo partly shown) [Compound I-1-91] | 1.2 | 466 | – |
| O[C@@H]1CO[C@H]2[C@@H]1OC[C@H]2Oc1nc2nc(NC3CCc4cc(OC5CCNCC5)cc(F)c43)c(Cl)cc2[nH]1 (stereo partly shown) [Compound I-1-93] | 4 | 444 | – |
| COC/C=C/c1cc(F)c2c(c1)CC[C@@H]2Nc1nc2nc(O[C@@H]3CO[C@H]4[C@@H]3OC[C@H]4O)[nH]c2cc1Cl [Compound I-1-94] | 5.6 | 416 | – |
| CCOCCOc1cc(F)c2c(c1)CC[C@@H]2Nc1nc2nc(O[C@@H]3CO[C@H]4[C@@H]3OC[C@H]4O)[nH]c2cc1Cl [Compound I-1-95] | 1.3 | 424 | – |
| O[C@@H]1CO[C@H]2[C@@H]1OC[C@H]2Oc1nc2nc(NC3CCc4cc(OCCN5CCOCC5)cc(F)c43)c(Cl)cc2[nH]1 (stereo partly shown) [Compound I-1-96] | 3.6 | 430 | – |
| O[C@@H]1CO[C@H]2[C@@H]1OC[C@H]2Oc1nc2nc(NC3CCc4cc(OCCN5CCCC5)cc(F)c43)c(Cl)cc2[nH]1 (stereo partly shown) [Compound I-1-97] | 2.1 | 433 | – |
| O=C1CCCN1CCOc1cc(F)c2c(c1)CCC2Nc1nc2nc(O[C@@H]3CO[C@H]4[C@@H]3OC[C@H]4O)[nH]c2cc1Cl (stereo partly shown) [Compound I-1-98] | 3.6 | – | 434 |
| O[C@@H]1CO[C@H]2[C@@H]1OC[C@H]2Oc1nc2nc(NC3CCc4cc(OCC5(F)COC5)cc(F)c43)c(Cl)cc2[nH]1 (stereo partly shown) [Compound I-1-99] | 4.6 | 422 | – |
| OCC/C=C/c1cc(F)c2c(c1)CCC2Nc1nc2nc(O[C@@H]3CO[C@H]4[C@@H]3OC[C@H]4O)[nH]c2cc1Cl (stereo partly shown) [Compound I-1-100] | 3.5 | 441 | – |
| COCCOc1cc(F)c2c(c1)CCC2Nc1nc2nc(O[C@@H]3CO[C@H](CO)C3)[nH]c2cc1Cl (stereo partly shown) [Compound I-1-104] | 2.3 | 423 | – |
| COCC(=O)Nc1cc(F)c2c(c1)CCC2Nc1nc2nc(O[C@@H]3CO[C@H]4[C@@H]3OC[C@H]4O)[nH]c2cc1Cl (stereo partly shown) [Compound I-1-105] | 4.1 | 434 | – |
| Cn1cc(-c2cc(F)c3c(c2)CCC3Nc2nc3nc(O[C@@H]4CO[C@H]5[C@@H]4OC[C@H]5O)[nH]c3cc2Cl)ccc1=O (stereo partly shown) [Compound I-1-106] | 1.4 | 462 | – |
| O[C@@H]1CO[C@H]2[C@@H]1OC[C@H]2Oc1nc2nc(NC3CCc4cc(-c5cnccn5)cc(F)c43)c(Cl)cc2[nH]1 (stereo partly shown) [Compound I-1-111] | 4.5 | 424 | – |
| O[C@@H]1CO[C@H]2[C@@H]1OC[C@H]2Oc1nc2nc(N[C@H]3CCc4cc(O[C@H]5CC[C@@H](O)CC5)cc(F)c43)c(Cl)cc2[nH]1 [Compound I-2-01] | 1.8 | 646 | – |
| COCC1CC1c1cc(F)c2c(c1)CC[C@@H]2Nc1nc2nc(O[C@@H]3CO[C@H]4[C@@H]3OC[C@H]4O)[nH]c2cc1Cl (stereo partly shown) [Compound I-2-02] | 2.4 | 557 | – |
| O[C@@H]1CO[C@H]2[C@@H]1OC[C@H]2Oc1nc2nc(NC3CCc4cc(OCCOCC(F)(F)F)cc(F)c43)c(Cl)cc2[nH]1 (stereo partly shown) [Compound I-2-05] | 6 | 680 | – |
| O[C@@H]1CO[C@H]2[C@@H]1OC[C@H]2Oc1nc2nc(NC3CCc4cc(OCCF)cc(F)c43)c(Cl)cc2[nH]1 (stereo partly shown) [Compound I-2-06] | 3.6 | – | 707 |
| CCOC/C=C/c1cc(F)c2c(c1)CC[C@@H]2Nc1nc2nc(O[C@@H]3CO[C@H]4[C@@H]3OC[C@H]4O)[nH]c2cc1Cl [Compound I-2-07] | 2 | 727 | – |
| CS(C)(=O)=Nc1cc(F)c2c(c1)CC[C@@H]2Nc1nc2nc(O[C@@H]3CO[C@H]4[C@@H]3OC[C@H]4O)[nH]c2cc1Cl [Compound I-2-08] | 3.5 | 688 | – |
| CC(C)(O)COc1cc(F)c2c(c1)CCC2Nc1nc2nc(O[C@@H]3CO[C@H]4[C@@H]3OC[C@H]4O)[nH]c2cc1Cl (stereo partly shown) [Compound I-2-09] | 3.9 | 633 | – |
| N#Cc1cc(F)c2c(c1)CC[C@@H]2Nc1nc2nc(O[C@@H]3CO[C@H]4[C@@H]3OC[C@H]4O)[nH]c2cc1Cl [Compound I-2-10] | 3.4 | 642 | – |
| O[C@@H]1CO[C@H]2[C@@H]1OC[C@H]2Oc1nc2cc(Cl)c(NC3CCc4cc(OCCOC(F)F)cc(F)c43)nc2[nH]1 (stereo partly shown) [Compound I-2-14] | 5.6 | 594 | – |
| COCn1cc(-c2cc(F)c3c(c2)CC[C@@H]3Nc2nc3[nH]c(O[C@@H]4CO[C@H]5[C@@H]4OC[C@H]5O)nc3cc2Cl)cn1 [Compound I-2-17] | 1.4 | 720 | – |
| O[C@@H]1CO[C@H]2[C@@H]1OC[C@H]2Oc1nc2nc(NC3CCc4cc(-c5ccoc5)cc(F)c43)c(Cl)cc2[nH]1 (stereo partly shown) [Compound I-2-21] | 4.9 | 650 | – |
